Measured values: publication PMC9374667 (Communications Biology, 2022)
Several values for one entry are separate records, joined by “and”; a condition that tells them apart may be missing. Equal values may be shown once.

Tests used:
db/db mice [1] = experiment: Glucose tolerance test (GTT); format: in vivo; conditions: for blood glucose level, mean: mean of 10 mice
db/db mice [2] = experiment: Fat depots weight (BAT, iWAT, eWAT; percentage of body weight); format: in vivo; parameters: key to BAT fat depot weight (Figure 4c): % of body weight (fat depot weight / body weight * 100%); conditions: db/db mice; for eWAT fat depot weight (Figure 4c) / iWAT fat depot weight (Figure 4c): in %; for Fat depots weight / body weight: individual mice
Procedure: The lean wild type control and the db/db control mice were given equal vehicle volume (0.5% CMC-Na solution). All mice were monitored for food intake, body weight, and fasting blood glucose during the 35-day trial. Glucose tolerance test (GTT) and insulin resistance test (ITT) were performed at 4 and 5 weeks of treatment, respectively. Metabolic analysis was performed at 5 weeks of treatment. At the end of the study, blood samples were taken through the retroorbital venous sinus of mice, fat depots (brown fat, inguinal subcutaneous fat, epididymal fat, perirenal fat and mesenteric fat depot) were dissected, weighed, and immediately frozen in liquid nitrogen and stored at −80 °C until required. Weight of fat depots are expressed in percentage (fat depots weight /bodyweight * 100%).

[3] = In vitro dissolution studies: dynamic solubility in buffers and simulated biological fluids; format: physicochemical; conditions: CMC-Na, mean
Procedure: (§1) Solubilities were determined by adding excess sample to 30 mL different mediums, such as HCl solution, acetate buffer, phosphate buffer, SGF, FaSSIF and FeSSIF. The configuration of various buffer solutions is shown in Supplementary Table 2. After being shaken at 400 rpm at 37 °C for 0.5, 1, 2, and 24 h, 0.3 mL of suspension was sampled and centrifuged at 14,000 rpm for 8 min to isolate mother liquor, and then analyzed by HPLC after dilution. All samples were analyzed in triplicate.

db/db mice [4] = experiment: Insulin tolerance test (ITT), AUC and initial slope; format: in vivo; conditions: for blood glucose level: individual mice, in mmol/L (unit assumed); for Initial Slope: individual animals (Figure S10a)
Procedure: Mice were fasted for 4 h for insulin resistance test and intraperitoneally injected with 1 unit/kg of insulin. Blood glucose levels were measured from the tail vein blood at 0, 15, 30, 45, 60, 90, and 120 min after injection. Plasma insulin levels were measured using an ultrasensitive mouse insulin ELISA kit (Nanjing Jiancheng Bioengineering Institute, Nanjing, China).

db/db mice [5] = experiment: HE staining of epididymal adipose tissue, adipocyte size; format: in vivo; conditions: for Cell diameter (adipocyte size of eWAT): individual cells
Procedure: The adipose tissue was fixed overnight in 4% paraformaldehyde, then embedded in paraffin and cut into 5 µm thick slices. Tissue sections were stained with hematoxylin and eosin (H&E). For immunohistochemistry, sections were incubated with primary antibodies against F4/80 (1:100 dilution) diluted in the blocking solution at 4 °C overnight. The tissue sections were then incubated with the horseradish peroxidase (HRP)-conjugated secondary antibody at room temperature for 2 h. Finally, the sections were developed with diaminobenzidine (DAB) and counterstained with hematoxylin. Images were obtained under a microscope. To quantify the F4/80-positive macrophages, two random fields per sample were analyzed by Image J software. The IHC profiler plugin of ImageJ was used to calculate the F4/80 positive area.

[6] = pH of the solution after 24 hours of the dissolution test; format: physicochemical
Procedure: as §1, with “triplicate. […]” for “triplicate.”
into a 1000 mL flask followed by addition of about 800 mL of deionized water. The mixture is stirred until all solids are dissolved.
Add about 100 mL of 0.1 N HCl, check pH value with a pH meter and adjust the pH to 2.0 with HCl (1 N) or NaOH (1 N). Then dilute to the volume with deionized water.
* 1N sodium hydroxide: Weigh 8 g NaOH in a 200 mL plastic volumetric flask, add deionized water to volume and mix well. […]
phosphate and 3.093 g sodium chloride in a 500 mL volumetric flask, add about 0.450 L deionized water, and adjust the pH to 6.5 with 1N sodium hydroxide or 1 N hydrochloric acid. Make up to volume (0.5 […]
Step 2: Place and dissolve 1.120 g FaSSIF/FeSSIF/FaSSGF instant powder with 0.250 L of buffer (from step 1) in a 500 mL volumetric flask, then add buffer (from step 1) to volume, and mix well. […]
g sodium chloride in a 500 mL volumetric flask, add about 0.450 L deionized water, and adjust the pH to 5.0 with 1 N sodium hydroxide or 1 N hydrochloric acid. Make up to volume (500 mL) with
Step 2: Place and dissolve 5.600 g FaSSIF/FeSSIF/FaSSGF instant […]
0.750 L deionized water. Make up to volume (1000 mL) with deionized water and placed overnight.
(1 picture or pasted object on this page, not shown here)

[7] = BJ 75mg/kg, time column 1 of 7 (time not printed)
[8] = BJ 75mg/kg, time column 2 of 7 (time not given)
[9] = BJ 75mg/kg, time column 3 of 7 (time not given)
[10] = BJ 75mg/kg, time column 4 of 7 (time not given)
[11] = BJ 75mg/kg, time column 5 of 7 (time not given)
[12] = BJ 75mg/kg, time column 6 of 7 (time not given)
[13] = BJ 75mg/kg, time column 7 of 7 (time not printed)
[14] = BJ 150mg/kg, time column 1 of 7 (time not printed)
[15] = BJ 150mg/kg, time column 2 of 7 (time not given)
[16] = BJ 150mg/kg, time column 3 of 7 (time not given)
[17] = BJ 150mg/kg, time column 4 of 7 (time not given)
[18] = BJ 150mg/kg, time column 5 of 7 (time not given)
[19] = BJ 150mg/kg, time column 6 of 7 (time not given)
[20] = BJ 150mg/kg, time column 7 of 7 (time not printed)
[21] = BJ 75mg/kg, individual mice 1-10
[22] = BJ 150mg/kg, individual mice 1-10
[23] = BJ 75 and 150 mg/kg, BBR 150 mg/kg, Ibu 150 mg/kg

CC(C)Cc1ccc(C(C)C(=O)[O-])cc1.COc1ccc2cc3[n+](cc2c1OC)CCc1cc2c(cc1-3)OCO2.O.O.O.O [BJ, berberine-ibuprofen]
blood glucose level, mean (db/db mice [1]; [7]): 20.5 mmol/L
blood glucose level, mean (db/db mice [1]; [8]): 26.6 mmol/L
blood glucose level, mean (db/db mice [1]; [9]): 31.4 mmol/L
blood glucose level, mean (db/db mice [1]; [10]): 32 mmol/L
blood glucose level, mean (db/db mice [1]; [11]): 31.2 mmol/L
blood glucose level, mean (db/db mice [1]; [12]): 28.2 mmol/L
blood glucose level, mean (db/db mice [1]; [13]): 23.2 mmol/L
blood glucose level, mean (db/db mice [1]; [14]): 12.3 mmol/L
blood glucose level, mean (db/db mice [1]; [15]): 26.4 mmol/L
blood glucose level, mean (db/db mice [1]; [16]): 27.7 mmol/L
blood glucose level, mean (db/db mice [1]; [17]): 24.1 mmol/L
blood glucose level, mean (db/db mice [1]; [18]): 21.2 mmol/L
blood glucose level, mean (db/db mice [1]; [19]): 18.4 mmol/L
blood glucose level, mean (db/db mice [1]; [20]): 15.8 mmol/L
Glucose tolerance (GTT) (db/db mice [1]; db/db mice, 150 mg/kg, week 4): displayed better tolerance to glucose load
BAT fat depot weight (Figure 4c) (db/db mice [2]; [21]): 1.4827 and 0.5576 and 2.7679 and 1.5898 and 1.8729 and 1.268 and 0.7299 and 1.4681 and 1.4209 and 1.9195
eWAT fat depot weight (Figure 4c) (db/db mice [2]; [21]): 2.9499 and 3.004 and 3.3073 and 3.0683 and 2.8654 and 1.9039 and 2.9972 and 3.1786 and 2.5863 and 2.885
iWAT fat depot weight (Figure 4c) (db/db mice [2]; [21]): 2.9834 and 2.2193 and 4.5703 and 3.1934 and 4.0303 and 2.1465 and 2.6777 and 3.7948 and 2.2136 and 4.2859
eWAT fat depot weight (Figure 4c) (db/db mice [2]; [22]): 2.6032 and 2.4699 and 2.5757 and 2.9739 and 2.5582 and 2.4535 and 2.305 and 2.1485 and 2.4952 and 2.1171
iWAT fat depot weight (Figure 4c) (db/db mice [2]; [22]): 2.0087 and 2.2014 and 2.1848 and 3.5434 and 3.664 and 1.962 and 0.513 and 2.1562 and 2.8234 and 1.567
Fat depots weight / body weight (db/db mice [2]; 75 mg/kg for 35 days, 75 mg/kg): 17.3087% and 20.1428% and 17.1651% and 21.4638% and 17.3569% and 14.6768% and 23.7077% and 20.828% and 19.5629% and 16.4679%
Fat depots weight / body weight (db/db mice [2]; 150 mg/kg for 35 days, 150 mg/kg): 11.5274% and 15.536% and 18.4944% and 12.6638% and 16.2402% and 14.3781% and 12.8992% and 19.8596% and 21.4381% and 12.5947%
Fat depots weight compared with vehicle (db/db mice [2]; [23]): lower fat depots weight than vehicle-treated db/db mice
BBR dissolved in CMC-Na (Figure S7a) ([3]; time 0.5): 0.8321
Ibu dissolved in CMC-Na (Figure S7b) ([3]; time 0.5): 0.4805
BBR dissolved in CMC-Na (Figure S7a) ([3]; time 1): 1.458
Ibu dissolved in CMC-Na (Figure S7b) ([3]; time 1): 0.5844
BBR dissolved in CMC-Na (Figure S7a) ([3]; time 2): 1.5642
Ibu dissolved in CMC-Na (Figure S7b) ([3]; time 2): 0.6306
BBR dissolved in CMC-Na (Figure S7a) ([3]; time 24): 1.6671
Ibu dissolved in CMC-Na (Figure S7b) ([3]; time 24): 0.6693
blood glucose level (db/db mice [4]; [7]): 18.5 and 19.1 and 12.0 and 14.2 and 11.0 and 11.7 and 16.7 and 19.2 and 21.8 and 15.9
blood glucose level (db/db mice [4]; [8]): 19.2 and 21.2 and 12.1 and 14.6 and 8.3 and 11.4 and 18.6 and 22.2 and 23.5 and 18.5
blood glucose level (db/db mice [4]; [9]): 18.3 and 19.0 and 10.1 and 10.5 and 8.8 and 7.5 and 13.7 and 19.3 and 20.1 and 11.6
blood glucose level (db/db mice [4]; [10]): 13.0 and 15.2 and 7.6 and 10.0 and 6.8 and 7.5 and 12.1 and 16.3 and 20.8 and 11.0
blood glucose level (db/db mice [4]; [11]): 12.4 and 16.1 and 8.4 and 8.8 and 5.9 and 7.1 and 11.2 and 16.2 and 16.3 and 10.1
blood glucose level (db/db mice [4]; [12]): 10.2 and 13.2 and 6.9 and 8.2 and 5.3 and 6.4 and 9.7 and 13.6 and 14.6 and 9.4
blood glucose level (db/db mice [4]; [13]): 12.1 and 12.2 and 9.0 and 9.8 and 4.9 and 5.5 and 10.8 and 12.3 and 14.9 and 10.0
blood glucose level (db/db mice [4]; [14]): 18.0 and 17.8 and 9.3 and 14.4 and 11.4
blood glucose level (db/db mice [4]; [15]): 13.2 and 15.0 and 7.7 and 11.7 and 11.6
blood glucose level (db/db mice [4]; [16]): 7.7 and 7.0 and 1.7 and 6.1
blood glucose level (db/db mice [4]; [17]): 7.2 and 6.7 and 1.5 and 6.3
blood glucose level (db/db mice [4]; [18]): 9.0 and 8.2 and 3.3 and 5.2
blood glucose level (db/db mice [4]; [19]): 8.2 and 7.6 and 2.8 and 7.0
blood glucose level (db/db mice [4]; [20]): 10.4 and 7.7 and 4.0 and 7.3
Insulin sensitivity (ITT) (db/db mice [4]; db/db mice, 150 mg/kg, week 5): more sensitive to insulin stimulation
Initial Slope (db/db mice [4]; db/db mice, BJ 75mg/kg): -0.0733 mmol/L/min and -0.14 mmol/L/min and -0.1 mmol/L/min and 0.0033 mmol/L/min and -0.0567 mmol/L/min and -0.1433 mmol/L/min and -0.0067 mmol/L/min and -0.0033 mmol/L/min and -0.0633 mmol/L/min and -0.1233 mmol/L/min
Initial Slope (db/db mice [4]; db/db mice, BJ 150mg/kg): -0.1767 mmol/L/min and -0.22 mmol/L/min and -0.15 mmol/L/min and -0.28 mmol/L/min and -0.3433 mmol/L/min and -0.36 mmol/L/min and -0.2533 mmol/L/min and -0.2467 mmol/L/min
Cell diameter (adipocyte size of eWAT) (db/db mice [5]; 75 mg/kg): 121.031 µm and 117.863 µm and 116.509 µm and 116.462 µm and 115.083 µm and 111.737 µm and 111.179 µm and 109.716 µm and 106.71 µm and 106.209 µm and 103.54 µm and 98.2043 µm and 95.428 µm and 94.4084 µm and 90.8792 µm and 133.968 µm and 130.976 µm and 129.724 µm and 125.916 µm and 124.05 µm
Cell diameter (adipocyte size of eWAT) (db/db mice [5]; 150 mg/kg): 102.304 µm and 92.1827 µm and 91.4137 µm and 90.3818 µm and 88.4919 µm and 87.3914 µm and 86.5338 µm and 86.4994 µm and 85.9825 µm and 85.1497 µm and 81.6079 µm and 81.6018 µm and 80.5245 µm and 80.4936 µm and 112.756 µm and 110.047 µm and 105.5 µm and 104 µm and 102.927 µm
Size of adipocytes in eWAT compared with vehicle (db/db mice [5]; [23]): significantly reduced
pH of the solution after 24 hours ([6]; Acetate buffer, blank vehicle 4.54): 4.82
pH of the solution after 24 hours ([6]; CMC-Na, blank vehicle 6.51): 6.70
pH of the solution after 24 hours ([6]; FaSSIF-v1, blank vehicle 6.51): 5.50
pH of the solution after 24 hours ([6]; FeSSIF-v1, blank vehicle 5.04): 5.17
pH of the solution after 24 hours ([6]; HCl solution, blank vehicle 1.08): 1.03
pH of the solution after 24 hours ([6]; Phosphate buffer, blank vehicle 6.84): 6.90
pH of the solution after 24 hours ([6]; SGF, blank vehicle 2.03): 5.38
